Laboratory results reported in PubChem BioAssay (NCI).
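1) Cells in 96-well plates. 2) Compound, 48 h, 5 concentrations. 3) Linear interpolation between surrounding doses. 4) Unreached endpoint = highest concentration. GI50 marks 50% less growth. The concentration for full growth arrest is given as TGI.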

Key:
Test in all cases: DTP human tumour cell line panel, 48 h
MCF7 breast = test system: MCF7 breast
SF-268 CNS = test system: SF-268 CNS
PC-3 prostate = test system: PC-3 prostate
CCRF-CEM leukemia = test system: CCRF-CEM leukemia
K-562 leukemia = test system: K-562 leukemia
HL-60(TB) leukemia = test system: HL-60(TB) leukemia
U251 CNS = test system: U251 CNS
MALME-3M melanoma = test system: MALME-3M melanoma
ACHN renal = test system: ACHN renal
BT-549 breast = test system: BT-549 breast
HCT-116 colon = test system: HCT-116 colon
OVCAR-5 ovarian = test system: OVCAR-5 ovarian
UO-31 renal = test system: UO-31 renal
SN12C renal = test system: SN12C renal
HCC-2998 colon = test system: HCC-2998 colon
HS 578T breast = test system: HS 578T breast
COLO 205 colon = test system: COLO 205 colon
SK-MEL-2 melanoma = test system: SK-MEL-2 melanoma
IGROV1 ovarian = test system: IGROV1 ovarian
SNB-19 CNS = test system: SNB-19 CNS
M14 melanoma = test system: M14 melanoma
MDA-MB-435 = test system: MDA-MB-435
UACC-62 melanoma = test system: UACC-62 melanoma
KM12 colon = test system: KM12 colon
EKVX NSCLC = test system: EKVX NSCLC
OVCAR-3 ovarian = test system: OVCAR-3 ovarian
MOLT-4 leukemia = test system: MOLT-4 leukemia
SF-295 CNS = test system: SF-295 CNS
NCI-H522 lung = test system: NCI-H522 lung
CAKI-1 renal = test system: CAKI-1 renal

Compound `C=CC(=O)Nc1ccc(C(=O)/C=C/c2ccc(N(C)CCF)cc2)c(O)c1` has a TGI (MCF7 breast) of 10.7 µM, a GI50 (SF-268 CNS) of 2.47 µM and a TGI (SF-268 CNS) of 8.58 µM. It also gave a GI50 (PC-3 prostate) of 2.22 µM, a TGI (PC-3 prostate) of 13.6 µM and a GI50 (CCRF-CEM leukemia) of 2.15 µM. For the same compound, the TGI (CCRF-CEM leukemia) was 10.5 µM, the GI50 (K-562 leukemia) was 2.27 µM and the TGI (K-562 leukemia) was 24 µM. The GI50 (HL-60(TB) leukemia) was 1.77 µM, the TGI (HL-60(TB) leukemia) was 5.3 µM and the GI50 (U251 CNS) was 1.88 µM. The TGI (U251 CNS) was 5.17 µM, the GI50 (MALME-3M melanoma) was 1.43 µM and the TGI (MALME-3M melanoma) was 3.46 µM. For the same compound, the GI50 (ACHN renal) was 1.66 µM, the TGI (ACHN renal) was 3.45 µM and the GI50 (BT-549 breast) was 1.55 µM. It also gave a TGI (BT-549 breast) of 3.78 µM, a GI50 (HCT-116 colon) of 1.5 µM and a TGI (HCT-116 colon) of 3 µM. For the same compound, the GI50 (OVCAR-5 ovarian) was 1.98 µM, the TGI (OVCAR-5 ovarian) was 4.3 µM and the GI50 (UO-31 renal) was 1.28 µM. For the same compound, the TGI (UO-31 renal) was 3.74 µM, the GI50 (SN12C renal) was 1.86 µM and the TGI (SN12C renal) was 5.2 µM. The GI50 (HCC-2998 colon) was 1.78 µM, the TGI (HCC-2998 colon) was 3.64 µM and the GI50 (HS 578T breast) was 2.97 µM. It also gave a TGI (HS 578T breast) of 17.3 µM, a GI50 (COLO 205 colon) of 1.98 µM and a TGI (COLO 205 colon) of 4.86 µM. For the same compound, the GI50 (SK-MEL-2 melanoma) was 2.53 µM, the TGI (SK-MEL-2 melanoma) was 7.88 µM and the GI50 (IGROV1 ovarian) was 2 µM. The TGI (IGROV1 ovarian) was 6 µM, the GI50 (SNB-19 CNS) was 3.67 µM and the TGI (SNB-19 CNS) was 15 µM. The GI50 (M14 melanoma) was 1.7 µM, the TGI (M14 melanoma) was 4.19 µM and the GI50 (MDA-MB-435) was 1.72 µM. It also gave a TGI (MDA-MB-435) of 4.6 µM, a GI50 (UACC-62 melanoma) of 1.3 µM and a TGI (UACC-62 melanoma) of 2.77 µM. For the same compound, the GI50 (KM12 colon) was 2.1 µM, the TGI (KM12 colon) was 5.25 µM and the GI50 (EKVX NSCLC) was 3.37 µM. For the same compound, the TGI (EKVX NSCLC) was 13.8 µM, the GI50 (OVCAR-3 ovarian) was 1.62 µM and the TGI (OVCAR-3 ovarian) was 4.53 µM. It also gave a GI50 (MOLT-4 leukemia) of 1.99 µM, a TGI (MOLT-4 leukemia) of 6.85 µM and a GI50 (SF-295 CNS) of 4.49 µM. It also gave a TGI (SF-295 CNS) of 18.9 µM, a GI50 (NCI-H522 lung) of 1.42 µM and a TGI (NCI-H522 lung) of 2.95 µM. For the same compound, the GI50 (CAKI-1 renal) was 1.87 µM and the TGI (CAKI-1 renal) was 4.14 µM.
